Source: article PMC12652692, “Synthesis and In Vitro Anticancer Evaluation of Novel Phosphonium Derivatives of Chrysin” (International Journal of Molecular Sciences, 2025)

Tests used:
Assay in all cases: NCI60 five-dose screen
Format in all cases: cell-based
A549/ATCC = details: Homo sapiens, Non-small-Cell Lung Cancer
Procedure: (§1) Since all new conjugates (3a–h) had notable antiproliferative activities on several tumor cell lines in the course of the one-dose screening, they were subjected to a five-dose test. […] J. Mol. Sci. 2025, 26, 11063 10 of 10 S.3. NCI60 Screening A detailed description of the NCI screening procedures can also be found on the website of NCI [39], and in our previous work. S.3.1. One-Dose Screen All candidates were examined at first at a single high dose (10 μM) in the full NCI60 cell panel. The value reported for the one-dose test is growth relative to the no-drug control and relative to the time zero number of cells. This made possible the disclosure of both growth inhibition (numbers between 0 and 100) and lethality (numbers less than 0). For example, a value of 100 means no growth inhibition. A value of 20 would mean 80% growth inhibition. A value of 0 means no net growth over the course of the analysis. A value of −20 would mean 20% lethality. A value of −100 means all cells are dead. S.3.2. […] The human tumor cell lines of the cancer screening panel were grown in RPMI 1640 medium containing 5% fetal bovine serum and 2 mM l-glutamine. Characteristically, cells were injected in 96-well microtiter plates in 0.1 mL at plating densities ranging from 5000 to 40,000 cells/well, depending on the doubling time of individual cell lines. After cell inoculation, the microtiter plates were incubated at 37 °C, 5% carbon dioxide, 95% air, and 100% relative humidity for 24 hours before the addition of tested compounds. After 24 hours, 2 plates of each cell line were fixed in situ with Cl3COOH (TCA), to represent a measurement of the cell population for each cell line at the time of drug addition (tz). Tested compounds were solubilized in DMSO at 400-fold the desired final maximum test concentration and stored frozen before application. In the course of the drug addition, an aliquot of frozen concentrate was thawed and diluted to twice the desired final maximum test concentration with a complete medium containing 50 μg mL−1 gentamicin. Additional four, 10-fold or ½ log serial dilutions were produced to furnish a total of five drug concentrations plus control. Aliquots of 0.1 mL of these different drug dilutions were added to the appropriate microtiter wells already containing 0.1 mL of medium, resulting in the required final drug concentrations. Following drug addition, the plates were incubated at 37 °C, 5% carbon dioxide, 95% air, and 100% relative humidity for an additional 48 hours. For adherent cells, the test was finished by the addition of cold Cl3COOH. Cells were fixed in situ by the addition of 50 μL of cold 50% (w/v) Cl3COOH, and incubated at 4 °C for 1 hour. The supernatant was discarded, and the plates were washed with H2O (5×) and dried in air. Sulforhodamine B (SRB) solution (0.1 mL) at 0.4% (w/v) in 1% CH3COOH was added to each well, and plates were incubated at RT for 10 min. After staining, the unbound dye was removed by washing five times with 1% CH3COOH, and the plates were dried in the air. The bound stain is afterward solubilized with a 10 mM trizma base, and the absorbance is read on an automated plate reader at λ = 515 nm. Utilizing the seven absorbance measurements [time zero (tz), control growth (c), and test growth in the presence of the drug at the five concentration levels (ti)], the percentage growth was determined at each of the drug concentration levels. Growth inhibition (%) was calculated as: [(ti − tz)/(c − tz)] × 100, for concentrations where ti ≥ tz (1) [(ti − tz)/(tz)] × 100, for concentrations where ti < tz. (2) Three dose‒response parameters were calculated as follows. GI50 (growth inhibition of 50%) was determined from Equation (3), which is the drug concentration resulting in a 50% reduction in the net protein increase (as measured by SRB staining) in control cells in the course of the drug incubation. [(ti − tz)/(c − tz)] × 100 = 50 (3)

OVCAR-5 = details: Homo sapiens; OVCAR-5, Ovarian Cancer
Procedure: as §1

ACHN = details: Homo sapiens, Renal Cancer
Procedure: as §1

TK-10 = details: Homo sapiens; TK-10, Renal Cancer
Procedure: as §1

SNB-75 = details: Homo sapiens; SNB-75, CNS Cancer
Procedure: as §1

NCI/ADR-RES = details: Homo sapiens, Ovarian Cancer
Procedure: as §1

HCT-116 = details: Homo sapiens; HCT-116, Colon Cancer
Procedure: as §1

OVCAR-3 = details: Homo sapiens; OVCAR-3, Ovarian Cancer
Procedure: as §1

786-0 = details: Homo sapiens; 786-0, Renal Cancer
Procedure: as §1

OVCAR-8 = details: Homo sapiens; OVCAR-8, Ovarian Cancer
Procedure: as §1

CAKI-1 = details: Homo sapiens; CAKI-1, Renal Cancer
Procedure: as §1

SK-MEL-2 = details: Homo sapiens; SK-MEL-2, Melanoma
Procedure: as §1

M14 = details: Homo sapiens; M14, Melanoma
Procedure: as §1

SF-539 = details: Homo sapiens; SF-539, CNS Cancer
Procedure: as §1

BT-549 = details: Homo sapiens; BT-549, Breast Cancer
Procedure: as §1

OVCAR-4 = details: Homo sapiens; OVCAR-4, Ovarian Cancer
Procedure: as §1

MDA-MB231ATCC = details: Homo sapiens, MDA-MB-231, Breast Cancer
Procedure: as §1

NCI-H322M = details: Homo sapiens, Non-small-Cell Lung Cancer
Procedure: as §1

HOP-62 = details: Homo sapiens; HOP-62, Non-small-Cell Lung Cancer
Procedure: as §1

SK-OV-3 = details: Homo sapiens; SK-OV-3, Ovarian Cancer
Procedure: as §1

A498 = details: Homo sapiens; A498, Renal Cancer
Procedure: as §1

SF-268 = details: Homo sapiens; SF-268, CNS Cancer
Procedure: as §1

## O=c1cc(-c2ccccc2)oc2cc(OCCCC[P+](C3CCCCC3)(C3CCCCC3)C3CCCCC3)cc(O)c12 [3e]
A549/ATCC
  GI50: 1330 nM
OVCAR-5
  GI50: 1300 nM
ACHN
  GI50: 1520 nM
TK-10
  GI50: 1430 nM
SNB-75
  GI50: 529 nM
NCI/ADR-RES
  GI50: 8440 nM
HCT-116
  GI50: 882 nM
OVCAR-3
  GI50: 381 nM
786-0
  GI50: 1570 nM
OVCAR-8
  GI50: 595 nM
CAKI-1
  GI50: 1570 nM
SK-MEL-2
  GI50: 1320 nM
M14
  GI50: 515 nM
SF-539
  GI50: 751 nM
BT-549
  GI50: 709 nM
OVCAR-4
  GI50: 686 nM
MDA-MB231ATCC
  GI50: 366 nM
NCI-H322M
  GI50: 1580 nM
HOP-62
  GI50: 1560 nM
SK-OV-3
  GI50: 1470 nM
A498
  GI50: 1690 nM
SF-268
  GI50: 1040 nM

## COc1c(C)cc([P+](CCCCOc2cc(O)c3c(=O)cc(-c4ccccc4)oc3c2)(c2cc(C)c(OC)c(C)c2)c2cc(C)c(OC)c(C)c2)cc1C [3f]
A549/ATCC
  GI50: 314 nM
OVCAR-5
  GI50: 335 nM
ACHN
  GI50: 371 nM
TK-10
  GI50: 427 nM
SNB-75
  GI50: 213 nM
NCI/ADR-RES
  GI50: 1580 nM
HCT-116
  GI50: 256 nM
OVCAR-3
  GI50: 334 nM
786-0
  GI50: 338 nM
OVCAR-8
  GI50: 350 nM
CAKI-1
  GI50: 275 nM
SK-MEL-2
  GI50: 292 nM
M14
  GI50: 329 nM
SF-539
  GI50: 367 nM
BT-549
  GI50: 280 nM
OVCAR-4
  GI50: 351 nM
MDA-MB231ATCC
  GI50: 258 nM
NCI-H322M
  GI50: 432 nM
HOP-62
  GI50: 311 nM
SK-OV-3
  GI50: 263 nM
A498
  GI50: 367 nM
SF-268
  GI50: 525 nM

## Cc1ccccc1[P+](CCCCOc1cc(O)c2c(=O)cc(-c3ccccc3)oc2c1)(c1ccccc1C)c1ccccc1C [3g]
A549/ATCC
  GI50: 417 nM
OVCAR-5
  GI50: 1720 nM
ACHN
  GI50: 569 nM
TK-10
  GI50: 414 nM
SNB-75
  GI50: 274 nM
NCI/ADR-RES
  GI50: 2140 nM
HCT-116
  GI50: 265 nM
OVCAR-3
  GI50: 216 nM
786-0
  GI50: 291 nM
OVCAR-8
  GI50: 560 nM
CAKI-1
  GI50: 309 nM
SK-MEL-2
  GI50: 194 nM
M14
  GI50: 335 nM
SF-539
  GI50: 187 nM
BT-549
  GI50: 291 nM
OVCAR-4
  GI50: 429 nM
MDA-MB231ATCC
  GI50: 337 nM
NCI-H322M
  GI50: 1380 nM
HOP-62
  GI50: 332 nM
SK-OV-3
  GI50: 277 nM
A498
  GI50: 462 nM
SF-268
  GI50: 279 nM

## O=c1cc(-c2ccccc2)oc2cc(OCCCC[P+](c3ccccc3)(c3ccccc3)c3ccccn3)cc(O)c12 [3h]
A549/ATCC
  GI50: 1130 nM
OVCAR-5
  GI50: 1440 nM
ACHN
  GI50: 1640 nM
TK-10
  GI50: 1690 nM
SNB-75
  GI50: 572 nM
NCI/ADR-RES
  GI50: 7550 nM
HCT-116
  GI50: 650 nM
OVCAR-3
  GI50: 418 nM
786-0
  GI50: 1570 nM
OVCAR-8
  GI50: 494 nM
CAKI-1
  GI50: 1540 nM
SK-MEL-2
  GI50: 758 nM
M14
  GI50: 564 nM
SF-539
  GI50: 1060 nM
BT-549
  GI50: 293 nM
OVCAR-4
  GI50: 1140 nM
MDA-MB231ATCC
  GI50: 906 nM
NCI-H322M
  GI50: 2040 nM
HOP-62
  GI50: 1520 nM
SK-OV-3
  GI50: 1520 nM
A498
  GI50: 1730 nM
SF-268
  GI50: 760 nM
